Experimental data taken from patent publication US4749710A, “Immunosuppressive agents” (priority 1985, dated 1988).

What was measured:
[1] = test system: IgM production by human lymphocytes; test: Inhibition of IgM production by human lymphocytes in vitro (SAC activation, ELISA); assay type: cell-based; settings: 8 days, vehicle control 2.49 ± 0.17
Text: (§1) General Test Description Humoral immunity comprises one of the two major arms of the immune system and generally is beneficial. However, a number of disease states are characterized by a hyperactive immune system responding to self tissue antigens. […] In these diseases it would be important to suppress the humoral immune system.
(§2) In the following studies we used established methods to examine the effect of Vitamin D derivatives on the in vitro production of immunoglobulin (Ig) by human peripheral blood leukocytes (PBL) following polyclonal activation. Immunoglobulin was induced from PBL by co-culturing the PBL with the polyclonal B cell activator Staphylococcus aureus strain Cowan I (SAC) for a period of 8 days. The quantity of Ig produced in the culture supernatants was determined by using an enzyme linked immunosorbent assay (ELISA). The effect of Vitamin D derivatives was determined by comparing the amount of antibody produced in cultures containing Vitamin D derivatives to those cultures containing an appropriate concentration of vehicle (ethanol).
(§3) Solutions of vitamin D derivatives. Stock solutions of vitamin D derivatives were prepared as described previously for the murine CTL experiments.
(§4) INDUCTION OF HUMAN IG SECRETION Human peripheral blood mononuclear leukocytes were prepared from one day old buffy coat preparations obtained from the American Red Cross (Lansing, MI). […] Twenty five ml of this preparation were overlayed onto 25 ml of Ficoll-Paque contained in a 50 ml polypropylene centrifuge tube. After centrifugation at 400×g at 15° C. for 40 min, the cells at the interface of the medium and Ficoll were removed and washed 3 times in 50 ml RPMI medium and centrifuged at 300×g for 10 minutes. After the final centrifugation,the cell pellet was suspended in RPMI medium containing 20% fetal bovine serum (FBS) and 80 μg/ml gentamicin. The number of viable cells was determined by trypan blue exclusion and were then suspended to 2.5×10^6 viable cells per ml in RPMI containing 20% FBS and gentamicin. Human PBL were induced to secrete Ig as follows. One hundred microliters of the PBL suspension and an additional 100 μl of a 1:20,000 (v/v) preparation of SAC suspended in RPMI containing 1% FBS were added to each well of a 96-well microtiter plate. Selected wells were also set up without the addition of SAC to serve as negative controls (spontaneous Ig secretion). Each well then received 20 μl of either the appropriate dilution of Vitamin D derivative in RPMI with 1% ethanol or RPMI with 1% ethanol (vehicle control). The vitamin D derivatives were tested at final concentrations of 10^-5, 10^-6, 10^-7, 10^-8, 10^-9, and 10^-10 M and in all cases the vehicle (ethanol) concentration was 0.1%. All treatments were performed in triplicate. […] The samples were then either assayed immediately or stored at -20° C. until assayed by the ELISA technique described below.
(§5) QUANTITATION OF SECRETED IG (ELISA ASSAY) ELISA plates were prepared for quantitating human IgG and IgM levels in culture supernatants as follows. Affinity purified sheep anti-human IgG and goat anti-human IgM (Cappel, Cochranville, PA) were diluted 1:250 and 1:400 respectively, in carbonate coating buffer (0.05M sodium bicarbonate, 0.05M sodium carbonate, 0.15M sodium chloride). One hundred and fifty microliters of the antibody preparation were added to each well of a 96 well ELISA plate (EIA, Costar). The plates were sealed and incubated overnight at 4° C. and on the following day were washed 3 times with distilled water. Each well then received 350 μl of Dulbecco's PBS containing 1 mg/ml bovine serum albumin (BSA) and 0.5 mg/ml sodium azide. The plates were allowed to incubate for 1 hour at 37° C. and then washed 3 times with Dulbecco's PBS containing 0.5% stock Tween 20 (PBS-Tween) followed by 2 washes with distilled water. The plates were air dried and stored desiccated under a vacuum at 4° C. until use.

[2] = test system: IgG production by human lymphocytes; test: Inhibition of IgG production by human lymphocytes in vitro (SAC activation, ELISA); assay type: cell-based; settings: 8 days, vehicle control 0.78 ± 0.09
Text: as §1, §2, §3, §4, §5

Row | SMILES | IgM μg per culture (x ± S.E.M.) ([1]; 1 × 10^-6 molar) | IgM μg per culture (x ± S.E.M.) ([1]; 1 × 10^-7 molar) | IgM μg per culture (x ± S.E.M.) ([1]; 1 × 10^-8 molar) | IgM μg per culture (x ± S.E.M.) ([1]; 1 × 10^-9 molar) | IgM μg per culture (x ± S.E.M.) ([1]; 1 × 10^-10 molar) | IgG μg per culture (x ± S.E.M.) ([2]; 1 × 10^-6 molar) | IgG μg per culture (x ± S.E.M.) ([2]; 1 × 10^-7 molar) | IgG μg per culture (x ± S.E.M.) ([2]; 1 × 10^-8 molar) | IgG μg per culture (x ± S.E.M.) ([2]; 1 × 10^-9 molar) | IgG μg per culture (x ± S.E.M.) ([2]; 1 × 10^-10 molar)
1 | C=C1/C(=C\C=C2/CCC[C@]3(C)[C@@H]([C@H](C)C[C@H](O)CC(C)(C)O)CC[C@@H]23)C[C@@H](O)C[C@@H]1O [1α,23S,25-(OH)3 --D3, 1α,23S,25-Trihydroxycholecalciferol] | undetectable | 0.12 ± 0.07 μg per culture | 0.46 ± 0.13 μg per culture | 1.55 ± 0.96 μg per culture | 4.61 ± 0.73 μg per culture | 0.01 ± 0.002 μg per culture | 0.02 ± 0.002 μg per culture | 0.05 ± 0.01 μg per culture | 1.14 ± 0.61 μg per culture | 0.54 ± 0.18 μg per culture
2 | C=C1/C(=C\C=C2/CCC[C@]3(C)[C@@H]([C@H](C)/C=C/[C@H](C)[C@](C)(O)CO)CC[C@@H]23)C[C@@H](O)C[C@@H]1O [1α,25S,26-(OH)3 --D2, 1α,25S,26-Trihydroxyergocalciferol] | 0.01 ± 0.006 μg per culture | 0.03 ± 0.01 μg per culture | 0.14 ± 0.12 μg per culture | 0.29 ± 0.17 μg per culture | 1.09 ± 0.26 μg per culture | undetectable | 0.01 ± 0.005 μg per culture | 0.07 ± 0.02 μg per culture | 0.08 ± 0.03 μg per culture | 0.21 ± 0.06 μg per culture
3 | C=C1/C(=C\C=C2/CCC[C@]3(C)[C@@H]([C@H](C)C=CC[C@](C)(O)CO)CC[C@@H]23)C[C@@H](O)C[C@@H]1O [1α,25S,26-(OH)3 --Δ^22 -D3, 1α,25S,26-Trihydroxy-Δ^22-cholecalciferol] | undetectable | 0.05 ± 0.03 μg per culture | 0.09 ± 0.04 μg per culture | 0.24 ± 0.07 μg per culture | 1.02 ± 0.34 μg per culture | 0.005 ± 0.002 μg per culture | 0.01 ± 0.002 μg per culture | 0.04 ± 0.01 μg per culture | 0.06 ± 0.03 μg per culture | 0.20 ± 0.03 μg per culture
